Results reported in the NIST ThermoML archive (doi:10.1016/j.fluid.2015.10.001).
Several values for one entry are separate records, joined by “and”; a condition that tells them apart may be missing. Equal values may be shown once.

Columns and labels:
[1] = Molar enthalpy of transition or fusion; conditions: Crystal; DSC
[2] = Crystal; for vapor or sublimation pressure: Transpiration method; for Normal melting temperature: DTA

O=C(O)c1ccccc1F [2-fluorobenzoic acid]
Conditions	Molar enthalpy of transition or fusion [kcal/mol]	Normal melting temperature [°C]
[1]	4.85	–
[2]	–	123.6

[2]
Conditions	vapor or sublimation pressure [kPa]
333.9 K	0.00321
334.6 K	0.0035
335.9 K	0.00389
337 K	0.00451
338.9 K	0.00528
340.2 K	0.00614
342 K	0.00738
342.2 K	0.00734
345 K	0.0094
346.6 K	0.01115
348.3 K	0.0132
351.2 K	0.01709
352.4 K	0.01997
353.2 K	0.02087
354.2 K	0.02242
356.5 K	0.02903
358.2 K	0.03398
358.3 K	0.0322
360.5 K	0.03997
361.3 K	0.04428
363.4 K	0.05001
364.5 K	0.05529
367.2 K	0.07204

O=C(O)c1ccccc1I [2-iodobenzoic acid]
Conditions	Molar enthalpy of transition or fusion [kcal/mol]	Normal melting temperature [°C]
[1]	6.6	–
[2]	–	161.4

[2]
Conditions	vapor or sublimation pressure
362.4 K	0.00113 kPa
367.6 K	0.00188 kPa
376.2 K	0.00432 kPa
381.9 K	0.00744 kPa
386.9 K	0.01099 kPa
393.2 K	0.02004 kPa and 0.01875 kPa
397.2 K	0.02759 kPa
399.2 K	0.03193 kPa
403.2 K	0.0431 kPa and 0.04492 kPa
407.3 K	0.06078 kPa
411.5 K	0.08737 kPa

O=C(O)c1cccc(F)c1 [3-fluorobenzoic acid]
Conditions	Molar enthalpy of transition or fusion [kcal/mol]	Normal melting temperature [°C]
[1]	4.42	–
[2]	–	122.8

[2]
Conditions	vapor or sublimation pressure [kPa]
331.9 K	0.00407
334.9 K	0.00564
338 K	0.00734
342.1 K	0.01139
345 K	0.01472
347.1 K	0.01783
350.4 K	0.02353
353.3 K	0.03091
356.5 K	0.04119
359.5 K	0.0543
362.6 K	0.06845

O=C(O)c1cccc(I)c1 [3-iodobenzoic acid]
Conditions	Molar enthalpy of transition or fusion [kcal/mol]	Normal melting temperature [°C]
[1]	6.62	–
[2]	–	185.8

[2]
Conditions	vapor or sublimation pressure [kPa]
366.6 K	0.00121
370.4 K	0.00171
375.8 K	0.00281
380.8 K	0.00438
386 K	0.00688
389.1 K	0.00894
391.9 K	0.01174
395.1 K	0.01521
399.2 K	0.02068
404.1 K	0.03146
404.2 K	0.03145
409 K	0.04684
411.4 K	0.05339
414.2 K	0.06461
417.5 K	0.08451
422 K	0.1194

O=C(O)c1ccc(F)cc1 [4-fluorobenzoic acid]
Conditions	Molar enthalpy of transition or fusion [kcal/mol]	Normal melting temperature [°C]
[1]	5.16	–
[2]	–	183.0

[2]
Conditions	vapor or sublimation pressure [kPa]
343 K	0.00456
346.2 K	0.00612
349.3 K	0.00844
355.1 K	0.01384
356.5 K	0.01539
359.5 K	0.02097
363.7 K	0.02861
365.6 K	0.03441
366.9 K	0.03729
371.8 K	0.05523
375.8 K	0.07688
380.9 K	0.1162
385.2 K	0.1594
386.2 K	0.1701

O=C(O)c1ccc(I)cc1 [4-iodobenzoic acid]
Conditions	Molar enthalpy of transition or fusion [kcal/mol]	Normal melting temperature [°C]
[1]	8.05	–
[2]	–	270.8

[2]
Conditions	vapor or sublimation pressure [kPa]
388.9 K	0.00205
391.1 K	0.00244
403.3 K	0.00654
409.4 K	0.01081
415.3 K	0.01743
421.5 K	0.02673
424.5 K	0.03413
427.4 K	0.04118
433.5 K	0.06312
